The record followed here is US9303026B2, “Antiviral agents” (Biota Scientific Management Pty Ltd, priority 2000, dated 2016).

The nature of the series: Cytotoxicity in uninfected treated cultures (CC50). It is filed as cell-based. The note with it: human, uninfected MRC-5 human embryo lung cells; Table 7; concentration yielding 50% cytotoxicity, uninfected MRC-5 cells.

By CC50 is commonly meant the concentration at which the toxic effect on the cells reaches its halfway point. Lower therefore signals harm at low concentration.

The structures appear in SMILES notation. Bounds are passed on as bounds.

`CSc1nc2ccc(OCCC3CCN(c4ccc(C)nn4)CC3)cc2o1` [Compound 4, 6-{2-[1-(6-Methyl-3-pyridazinyl)-4-piperidinyl]ethoxy}-2-methylthiobenzoxazole] yielded a 50% cytotoxic concentration (CC50) above 1 µg/mL.
